Test results: patent publication US20020137929A1, “1 - (3-heterocyclylphenyl) isothiourea, -isourea, -guanidine and -amidine herbicidal agents” (Intellectual Property Department, BASF Aktiengesellschaft, priority 1998, published 2002)

Tests used:
[1] = system: TRZAWR (Wheat, Winter, cv Riband); assay: Postemergence herbicidal evaluation; format: in vivo, Triticum aestivum; settings: postemergence
How it was run: (§1)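 Scores (0–9) reflect plant stand, vigor, malformation, size, chlorosis and general appearance relative to control, read 4 to 5 weeks after treatment and averaged where tests were repeated. Application: about 0.0156–0.500 kg/ha sprayed at 40 psi onto two-week seedlings.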

CASOB (Sicklepod) = assay: Preemergence herbicidal evaluation; format: in vivo, Cassia obtusifolia; settings: rated 4-5 weeks after treatment, rating scale 0-9
How it was run: (§2)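 Seeds were planted in potting soil in cups, then sprayed preemergence with the test compound in aqueous acetone at about 0.0156 to 0.500 kg per hectare. Cups were kept under greenhouse conditions and visually rated 4–5 weeks after treatment on a 0–9 scale against an untreated control.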

SETVI (Foxtail, Green) [2] = assay: Postemergence herbicidal evaluation; format: in vivo, Setaria viridis; settings: postemergence
How it was run: as §1

[3] = system: SAGPY (Arrowhead (Pygmaea)); assay: Preemergence weed control under flooded paddy conditions; format: in vivo, Sagittaria pygmaea; settings: rated 3-4 weeks after treatment
How it was run: (§3)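 First, seeds or propagules go into the top 0.5 cm of silt loam; next, water is held 1.5 to 3 cm over the soil; then compound (50/50 acetone/water) is pipetted into it at about 0.0313 to 0.500 kg/ha; finally plants are rated visually 0-9 after three to four weeks.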

AMBEL (Ragweed, Common) = assay: Postemergence herbicidal evaluation; format: in vivo, Ambrosia artemisifolia; settings: postemergence
How it was run: as §1

SETVI (Foxtail, Green) [4] = assay: Preemergence herbicidal evaluation; format: in vivo, Setaria viridis; settings: rated 4-5 weeks after treatment, rating scale 0-9
How it was run: as §2

ECHCG (Barnyardgrass) = assay: Postemergence herbicidal evaluation; format: in vivo, Echinochloa crus-galli; settings: postemergence
How it was run: as §1

ORYSAT (Rice, Tebonnet) = assay: Postemergence herbicidal evaluation; format: in vivo, Oryza sativa, (L.) Tebonnet; settings: postemergence
How it was run: as §1

[5] = system: GLXMAW (Soybean, Williams); assay: Postemergence herbicidal evaluation; format: in vivo, Glycine max, (L.) Merr. cv Williams; settings: postemergence
How it was run: as §1

MOOVA (Monochoria) = assay: Preemergence weed control under flooded paddy conditions; format: in vivo, Monochoria vaginalis; settings: rated 3-4 weeks after treatment
How it was run: as §3

ABUTH (Velvetleaf) [6] = assay: Postemergence herbicidal evaluation; format: in vivo, Abutilon theophrasti; settings: postemergence
How it was run: as §1

ABUTH (Velvetleaf) [7] = assay: Preemergence herbicidal evaluation; format: in vivo, Abutilon theophrasti; settings: rated 4-5 weeks after treatment, rating scale 0-9
How it was run: as §2

COc1ccc(CN2C(=O)CSC2=Nc2cc(-n3c(=O)cc(C(F)(F)F)n(C)c3=O)c(F)cc2Cl)c(OC)c1 [Compound 139, 3-{4-Chloro-5-{[3-(2,4-dimethoxybenzyl)-4-oxo-2-thiazolidinylidene]amino}-2-fluorophenyl}-1-methyl-6-(trifluoromethyl)-2,4(1H,3H)-pyrimidinedione]
herbicidal rating TRZAWR ([1]; rate 0.0156 kg/ha): 2.5 | herbicidal rating TRZAWR ([1]; rate 0.0313 kg/ha): 3.0 | herbicidal rating TRZAWR ([1]; rate 0.0625 kg/ha): 3.5 | Preemergence herbicidal rating CASOB (CASOB (Sicklepod); rate 0.0156 kg/ha): 0.0 | Preemergence herbicidal rating CASOB (CASOB (Sicklepod); rate 0.0313 kg/ha): 0.0 | Preemergence herbicidal rating CASOB (CASOB (Sicklepod); rate 0.0625 kg/ha): 1.0 | Preemergence herbicidal rating CASOB (CASOB (Sicklepod); rate 0.1250 kg/ha): 2.0 | Preemergence herbicidal rating CASOB (CASOB (Sicklepod); rate 0.2500 kg/ha): 1.0 | herbicidal rating SETVI (SETVI (Foxtail, Green) [2]; rate 0.0156 kg/ha): 2.0 | herbicidal rating SETVI (SETVI (Foxtail, Green) [2]; rate 0.0313 kg/ha): 2.0 | herbicidal rating SETVI (SETVI (Foxtail, Green) [2]; rate 0.0625 kg/ha): 5.0 | herbicidal effect rating, SAGPY ([3]; 0.0313 kg/ha): 0.0 | herbicidal effect rating, SAGPY ([3]; 0.0625 kg/ha): 0.0 | herbicidal effect rating, SAGPY ([3]; 0.1250 kg/ha): 0.0 | herbicidal effect rating, SAGPY ([3]; 0.2500 kg/ha): 0.0 | herbicidal rating AMBEL (AMBEL (Ragweed, Common); rate 0.0156 kg/ha): 9.0 | herbicidal rating AMBEL (AMBEL (Ragweed, Common); rate 0.0313 kg/ha): 9.0 | herbicidal rating AMBEL (AMBEL (Ragweed, Common); rate 0.0625 kg/ha): 7.0 | Preemergence herbicidal rating SETVI (SETVI (Foxtail, Green) [4]; rate 0.0156 kg/ha): 0.0 | Preemergence herbicidal rating SETVI (SETVI (Foxtail, Green) [4]; rate 0.0313 kg/ha): 0.0 | Preemergence herbicidal rating SETVI (SETVI (Foxtail, Green) [4]; rate 0.0625 kg/ha): 0.0 | Preemergence herbicidal rating SETVI (SETVI (Foxtail, Green) [4]; rate 0.1250 kg/ha): 1.0 | Preemergence herbicidal rating SETVI (SETVI (Foxtail, Green) [4]; rate 0.2500 kg/ha): 7.0 | herbicidal rating ECHCG (ECHCG (Barnyardgrass); rate 0.0156 kg/ha): 3.0 | herbicidal rating ECHCG (ECHCG (Barnyardgrass); rate 0.0313 kg/ha): 2.0 | herbicidal rating ECHCG (ECHCG (Barnyardgrass); rate 0.0625 kg/ha): 3.0 | herbicidal rating ORYSAT (ORYSAT (Rice, Tebonnet); rate 0.0156 kg/ha): 2.0 | herbicidal rating ORYSAT (ORYSAT (Rice, Tebonnet); rate 0.0313 kg/ha): 3.0 | herbicidal rating ORYSAT (ORYSAT (Rice, Tebonnet); rate 0.0625 kg/ha): 3.5 | herbicidal rating GLXMAW ([5]; rate 0.0156 kg/ha): 5.5 | herbicidal rating GLXMAW ([5]; rate 0.0313 kg/ha): 6.5 | herbicidal rating GLXMAW ([5]; rate 0.0625 kg/ha): 7.0 | herbicidal effect rating, MOOVA (MOOVA (Monochoria); 0.0313 kg/ha): 4.0 | herbicidal effect rating, MOOVA (MOOVA (Monochoria); 0.0625 kg/ha): 5.0 | herbicidal effect rating, MOOVA (MOOVA (Monochoria); 0.1250 kg/ha): 7.0 | herbicidal effect rating, MOOVA (MOOVA (Monochoria); 0.2500 kg/ha): 7.0 | herbicidal rating ABUTH (ABUTH (Velvetleaf) [6]; rate 0.0156 kg/ha): 9.0 | herbicidal rating ABUTH (ABUTH (Velvetleaf) [6]; rate 0.0313 kg/ha): 9.0 | herbicidal rating ABUTH (ABUTH (Velvetleaf) [6]; rate 0.0625 kg/ha): 9.0 | Preemergence herbicidal rating ABUTH (ABUTH (Velvetleaf) [7]; rate 0.0156 kg/ha): 0.0 | Preemergence herbicidal rating ABUTH (ABUTH (Velvetleaf) [7]; rate 0.0313 kg/ha): 0.0 | Preemergence herbicidal rating ABUTH (ABUTH (Velvetleaf) [7]; rate 0.0625 kg/ha): 0.0 | Preemergence herbicidal rating ABUTH (ABUTH (Velvetleaf) [7]; rate 0.1250 kg/ha): 9.0 | Preemergence herbicidal rating ABUTH (ABUTH (Velvetleaf) [7]; rate 0.2500 kg/ha): 9.0

Cn1c(C(F)(F)F)cc(=O)n(-c2cc(N=C3SCC(=O)N3Cc3cccc(C(F)(F)F)c3)c(Cl)cc2F)c1=O [Compound 142, 3-{4-Chloro-2-fluoro-5-{{3-[m-(trifluoromethyl)benzyl]-4-oxo-2-thiazolidinylidene}-amino}phenyl}-1-methyl-6-(trifluoromethyl)-2,4(1H,3H)-pyrimidinedione]
herbicidal rating TRZAWR ([1]; rate 0.0156 kg/ha): 2.5 | herbicidal rating TRZAWR ([1]; rate 0.0313 kg/ha): 2.5 | herbicidal rating TRZAWR ([1]; rate 0.0625 kg/ha): 2.5 | Preemergence herbicidal rating CASOB (CASOB (Sicklepod); rate 0.0156 kg/ha): 1.0 | Preemergence herbicidal rating CASOB (CASOB (Sicklepod); rate 0.0313 kg/ha): 0.0 | Preemergence herbicidal rating CASOB (CASOB (Sicklepod); rate 0.0625 kg/ha): 2.0 | Preemergence herbicidal rating CASOB (CASOB (Sicklepod); rate 0.1250 kg/ha): 1.0 | Preemergence herbicidal rating CASOB (CASOB (Sicklepod); rate 0.2500 kg/ha): 0.0 | herbicidal rating SETVI (SETVI (Foxtail, Green) [2]; rate 0.0156 kg/ha): 2.0 | herbicidal rating SETVI (SETVI (Foxtail, Green) [2]; rate 0.0313 kg/ha): 1.0 | herbicidal rating SETVI (SETVI (Foxtail, Green) [2]; rate 0.0625 kg/ha): 3.0 | herbicidal effect rating, SAGPY ([3]; 0.0313 kg/ha): 0.0 | herbicidal effect rating, SAGPY ([3]; 0.0625 kg/ha): 0.0 | herbicidal effect rating, SAGPY ([3]; 0.1250 kg/ha): 0.0 | herbicidal effect rating, SAGPY ([3]; 0.2500 kg/ha): 2.0 | herbicidal rating AMBEL (AMBEL (Ragweed, Common); rate 0.0156 kg/ha): 9.0 | herbicidal rating AMBEL (AMBEL (Ragweed, Common); rate 0.0313 kg/ha): 9.0 | herbicidal rating AMBEL (AMBEL (Ragweed, Common); rate 0.0625 kg/ha): 9.0 | Preemergence herbicidal rating SETVI (SETVI (Foxtail, Green) [4]; rate 0.0156 kg/ha): 0.0 | Preemergence herbicidal rating SETVI (SETVI (Foxtail, Green) [4]; rate 0.0313 kg/ha): 1.0 | Preemergence herbicidal rating SETVI (SETVI (Foxtail, Green) [4]; rate 0.0625 kg/ha): 0.0 | Preemergence herbicidal rating SETVI (SETVI (Foxtail, Green) [4]; rate 0.1250 kg/ha): 2.0 | Preemergence herbicidal rating SETVI (SETVI (Foxtail, Green) [4]; rate 0.2500 kg/ha): 7.0 | herbicidal rating ECHCG (ECHCG (Barnyardgrass); rate 0.0156 kg/ha): 1.0 | herbicidal rating ECHCG (ECHCG (Barnyardgrass); rate 0.0313 kg/ha): 1.0 | herbicidal rating ECHCG (ECHCG (Barnyardgrass); rate 0.0625 kg/ha): 2.0 | herbicidal rating ORYSAT (ORYSAT (Rice, Tebonnet); rate 0.0156 kg/ha): 2.0 | herbicidal rating ORYSAT (ORYSAT (Rice, Tebonnet); rate 0.0313 kg/ha): 1.5 | herbicidal rating ORYSAT (ORYSAT (Rice, Tebonnet); rate 0.0625 kg/ha): 2.0 | herbicidal rating GLXMAW ([5]; rate 0.0156 kg/ha): 5.0 | herbicidal rating GLXMAW ([5]; rate 0.0313 kg/ha): 5.0 | herbicidal rating GLXMAW ([5]; rate 0.0625 kg/ha): 5.5 | herbicidal effect rating, MOOVA (MOOVA (Monochoria); 0.0313 kg/ha): 6.0 | herbicidal effect rating, MOOVA (MOOVA (Monochoria); 0.0625 kg/ha): 7.0 | herbicidal effect rating, MOOVA (MOOVA (Monochoria); 0.1250 kg/ha): 9.0 | herbicidal effect rating, MOOVA (MOOVA (Monochoria); 0.2500 kg/ha): 8.0 | herbicidal rating ABUTH (ABUTH (Velvetleaf) [6]; rate 0.0156 kg/ha): 3.0 | herbicidal rating ABUTH (ABUTH (Velvetleaf) [6]; rate 0.0313 kg/ha): 9.0 | herbicidal rating ABUTH (ABUTH (Velvetleaf) [6]; rate 0.0625 kg/ha): 9.0 | Preemergence herbicidal rating ABUTH (ABUTH (Velvetleaf) [7]; rate 0.0156 kg/ha): 0.0 | Preemergence herbicidal rating ABUTH (ABUTH (Velvetleaf) [7]; rate 0.0313 kg/ha): 1.0 | Preemergence herbicidal rating ABUTH (ABUTH (Velvetleaf) [7]; rate 0.0625 kg/ha): 1.0 | Preemergence herbicidal rating ABUTH (ABUTH (Velvetleaf) [7]; rate 0.1250 kg/ha): 4.0 | Preemergence herbicidal rating ABUTH (ABUTH (Velvetleaf) [7]; rate 0.2500 kg/ha): 9.0
